Measured values reported in US8440830B2, “Tetrahydro-fused pyridines as histone deacetylase inhibitors” (4SC AG, priority 2007, dated 2013).
Where two headings read alike, the source gives them in different places.

What was measured:
A549 NSCLC cells [1] = test: Cellular cytotoxicity assay (Alamar Blue), A549; assay type: cell-based; conditions: Homo sapiens, 72 h, upper end given as ≧100, read-out: IC50 (μM), cytotoxicity towards A549 NSCLC cells
In short: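 Cells were dosed 24 h after seeding with semi-log compound dilutions in quadruplicate, then incubated 72 h at 37 °C, 5% CO2. Viability read by Resazurin reduction (4 h, fluorescence 544/590 nm) relative to untreated 0.5% DMSO controls; IC50 by non-linear regression.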

A549 NSCLC cells [2] = test: Cell cycle analysis by flow cytometry; assay type: cell-based, human; conditions: A549, 24 h treatment
Protocol: A549 NSCLC cells (ATTC CCL-185) are cultivated in DMEM with high glucose (supplemented with 10% FBS) at 5% CO2 and 37° C. in a humidified atmosphere under standard cell culture conditions. 24 h before compound treatment, cells are seeded at 5×10^4 cells/ml (=5×10^5 cells/10 cm cell culture dish) to allow logarithmic proliferation during the experiment. After 24 h, cells were treated with test compound or 0.5 vol % DMSO as a control. After 24 h and 48 h treatment, the culture medium is collected and detached, floating cells are collected by short centrifugation (5 min at 1200 rpm). Attached cells are washed once with 5 ml PBS, detached by treatment with 3 ml trypsin/EDTA solution (short incubation for 3-5 min) and—together with detached, floating cells—transferred into 15 ml Falcon tubes. The cell culture dish is washed with 10 ml DMEM to collect all remaining cells. After centrifugation for 5 min at 1200 rpm at room temperature, the supernatant is discarded and the cell pellet washed twice with 10 ml PBS. The supernatant is discarded, the cells resuspended in 4 ml ice-cold fixation solution (70 vol % ethanol, 30 vol % H2O; stored at −20° C.) and stored at −20° C. overnight. Next, 10 ml PBS (4° C.) is added to the cells, before centrifugation for 5 min at 1200 rpm (4° C.). The supernatant is discarded, the cell pellet washed once with 10 ml PBS (4° C.) and the cell pellet finally resuspended in about 1 ml staining solution (10 μg/ml RNAse A, 10 μg/ml propidiumiodide in PBS, final volume dependent on cell number). After incubation for 30 min at room temperature in the dark, cells are stored on ice and analyzed using the Becton Dickinson FACS Canto device. Analysis is done at an excitation of λ=488 nm with emission set as λ=600 nm.
Data analysis: Cells are analyzed according to size, granularity and propidiumiodide intensity. Size and granularity of cells are determined by measurement of forward scatter (FSC) and side scatter (SSC) of the λ=488 nm excitation light, respectively. To discriminate cells with 4N DNA content from cell doublets (two attached cells with 2N DNA content each), the ratio between the area under the propidiumiodide peak (PE-A) and the height of the propidiumiodide peak (PE-H) for each cell is determined. Cell doublets need more time to pass through the laser beam, which causes a broadening of the propidiumiodide peak and an increase of the ratio PE-A/PE-H. Using this analysis, cells in 4N and cell doublets appear as distinct clouds in a scatter plot and are excluded from the analysis. Thus, the area under the propidiumiodide peak at λ=600 nm (PE-A) is a measure for the DNA content of the cells. PE-A is blotted against the measured cell number in a histogram in order to determine the percentage of analyzed cells in an individual stage of the cell cycle.

[3] = system: histone H3 hyperacetylation in HeLa cervical carcinoma cells; test: Cellular histone H3 hyperacetylation assay; assay type: cell-based; conditions: Homo sapiens, 24 h treatment
Excerpt: To assess the cellular efficacy of a histone deacetylase inhibitor in vitro, an assay is set up in black clear-bottom 96-well plates and optimized for use on the Cellomics “ArrayScan II” platform for a quantitative calculation of histone acetylation. The protocol uses a polyclonal rabbit antibody, specifically binding to acetylated lysine 1-20 (including K 9 and K14) of human histone H3 on fixed cells with an Alexa Fluor 488 labeled goat anti rabbit-IgG used for counterstaining 5×10^3 HeLa cervical carcinoma cells/well (ATCC CCL-2) in 200 μl Dulbecco's modified Eagle's medium (DMEM) containing 10% fetal calf serum are seeded at day 1 in Packard view plates and incubated for 24 h under standard cell culture conditions. On day 2, 1 μl test compound (200× final concentration) is added and incubation continued for further 24 h. On day 3, the culture medium is discarded and attached cells fixed for 15 min at room temperature by addition of 100 μl fixation buffer (3.7% v:v formaldehyde in phosphate buffered saline/PBS). After discarding the fixation buffer and one wash with blocking solution (1% BSA, 0.3% Tween 20 in PBS), cells are permeabilized at room temperature by addition of 100 μl /well permeabilization buffer (30.8 mM NaCl, 0.54 mM Na2HPO4, 0.31 mM KH2PO4, 0.1% v:v Triton X-100) for 15 min at room temperature. After discarding the permeabilization buffer and washing twice with 100 μl/well blocking solution at room temperature, the 1st antibody (anti-K1-20 histone H3 antibody, Calbiochem No. 382158) in blocking solution (50 μl/well) is added. After incubation for 1 h at room temperature, the wells are washed twice at room temperature with 100 μl/well blocking solution before addition of the 2nd antibody (goat-anti-rabbit Alexa Fluor 488; MoBiTec No. A -11008) in blocking solution (50 μl well). After further incubation for 1 h at room temperature, wells are washed twice with 100 μl/well blocking solution at room temperature. Finally, 100 μl/well PBS are added and image analysis performed on the Cellomics “ArrayScan II” platform. For EC50 determination, the percentage of positive cells showing nuclear fluorescence is determined and EC50 calculation done from concentration-effect curves by means of non-linear regression. For calibration, a positive (reference HDAC inhibitors like SAHA or NVP LBH-589) and a negative control were included.

[4] = read-out: EC50, induction of histone H3 hyperacetylation
[5] = read-out: −lg EC50, induction of histone H3 hyperacetylation

Row | SMILES | IC50 (A549 NSCLC cells [1]) [µM] | concentration inducing arrest in G1, depletion of cells in the S-phase and reduction of cells in the G2/M-phase (A549 NSCLC cells [2]) | EC50 [3, 4] [nM] | EC50 [3, 5] [nM]
1 | COc1ccc(S(=O)(=O)N2CCc3nc(C(=O)Nc4ccccc4N)sc3C2)cc1 [Example 153, N-(2-aminophenyl)-5-[(4-methoxyphenyl)sulfonyl]-4,5,6,7-tetrahydro[1,3]thiazolo[5,4-c]pyridine-2-carboxamide] | ≥ 0.2 | around 3 μM | 150 to 15000 | 251 to 15800
2 | Cc1ccc(OC(=O)N2CCc3nc(C(=O)Nc4ccccc4N)sc3C2)cc1 [Example 182, 4-methylphenyl 2-[(2-aminophenyl)carbamoyl]-6,7-dihydro[1,3]thiazolo[5,4-c]pyridine-5(4H)-carboxylate] | ≥ 0.2 | around 3 μM | 150 to 15000 | 251 to 15800
3 | COc1ccc(OC(=O)N2CCc3nc(C(=O)Nc4ccccc4N)sc3C2)cc1OC [Example 186, 3,4-dimethoxyphenyl 2-[(2-aminophenyl)carbamoyl]-6,7-dihydro[1,3]thiazolo[5,4-c]pyridine-5(4H)-carboxylate] | ≥ 0.2 | – | 150 to 15000 | 251 to 15800
4 | Nc1ccccc1NC(=O)c1nc2c(s1)CN(C(=O)OCc1cccnc1)CC2 [Example 189, Pyridin-3-ylmethyl 2-[(2-aminophenyl)carbamoyl]-6,7-dihydro[1,3]thiazolo[5,4-c]pyridine-5(4H)-carboxylate] | ≥ 0.2 | around 3 μM | 150 to 15000 | 251 to 15800
5 | Nc1ccccc1NC(=O)c1nc2c(s1)CN(C(=O)C=Cc1ccc3c(c1)OCO3)CC2 [Example 190, N-(2-aminophenyl)-5-[3-(1,3-benzodioxol-5-yl)prop-2-enoyl]-4,5,6,7-tetrahydro[1,3]thiazolo[5,4-c]pyridine-2-carboxamide] | ≥ 0.2 | – | 150 to 15000 | 251 to 15800
6 | Nc1ccccc1NC(=O)c1nc2c(s1)CN(C(=O)C=Cc1ccc(O)c(O)c1)CC2 [Example 191, N-(2-aminophenyl)-5-[3-(3,4-dihydroxyphenyl)prop-2-enoyl]-4,5,6,7-tetrahydro[1,3]thiazolo[5,4-c]pyridine-2-carboxamide] | ≥ 0.2 | – | 150 to 15000 | 251 to 15800
7 | Nc1ccccc1NC(=O)c1nc2c(s1)CN(c1ncccn1)CC2 [Example 192, N-(2-aminophenyl)-5-pyrimidin-2-yl-4,5,6,7-tetrahydro[1,3]thiazolo[5,4-c]pyridine-2-carboxamide] | ≥ 0.2 | – | 150 to 15000 | 251 to 15800
8 | Nc1ccccc1NC(=O)c1nc2c(s1)CN(c1nccc(-c3cccnc3)n1)CC2 [Example 193, N-(2-aminophenyl)-5-(4-pyridin-3-ylpyrimidin-2-yl)-4,5,6,7-tetrahydro[1,3]thiazolo[5,4-c]pyridine-2-carboxamide] | ≥ 0.2 | – | 150 to 15000 | 251 to 15800
9 | Nc1ccccc1NC(=O)c1nc2c(s1)CN(c1ccc([N+](=O)[O-])cn1)CC2 [Example 194, N-(2-aminophenyl)-5-(5-nitropyridin-2-yl)-4,5,6,7-tetrahydro[1,3]thiazolo[5,4-c]pyridine-2-carboxamide] | ≥ 0.2 | – | 150 to 15000 | 251 to 15800
10 | Cc1ccc(S(=O)(=O)Nc2cnc(N3CCc4nc(C(=O)Nc5ccccc5N)sc4C3)nc2)cc1 [Example 196, N-(2-aminophenyl)-5-(5-{[(4-methylphenyl)sulfonyl]amino}pyrimidin-2-yl)-4,5,6,7-tetrahydro[1,3]thiazolo[5,4-c]pyridine-2-carboxamide] | ≥ 0.2 | – | 150 to 15000 | 251 to 15800
11 | Cc1ccc(S(=O)(=O)Nc2ccc(N3CCc4nc(C(=O)Nc5ccccc5N)sc4C3)nc2)cc1 [Example 197, N-(2-aminophenyl)-5-(5-{[(4-methylphenyl)sulfonyl]amino}pyridin-2-yl)-4,5,6,7-tetrahydro[1,3]thiazolo[5,4-c]pyridine-2-carboxamide] | ≥ 0.2 | – | 150 to 15000 | 251 to 15800
